From patent US20090247520A1, “INHIBITORS OF ANTIGEN RECEPTOR-INDUCED NF-kappa B ACTIVATION” (The Burnham Institute for Medical Research, priority 2008, published 2009)

Columns and labels:
[1] = tested on: PMA/Ionomycin-induced NF-κB reporter gene activity; assay: NF-κB luciferase reporter gene assay, PMA/Ionomycin-stimulated HEK293-NF-κB-luc cells; assay type: cell-based; conditions: for inhibition of PMA/Ionomycin-induced NF-κB luciferase activity: HEK293; for IC50: Table II, read-out: IC50, Inhibition of antigen receptor-mediated Nf-κB
From the text: The strategy for compound library screening entailed using phorbol ester (phorbol myristic acetate [PMA]) and Ca^2+-ionophore Ionomycin to achieve PKC activation, mimicking the initiating events in the antigen receptor pathway. For convenience, we used HEK293 epithelial cells, in which it has previously been shown by siRNA-mediated gene silencing and transfection of dominant-negative mutants that PMA/Ionomycin-induced NF-κB activation is dependent on CARMA1, Bcl-10, and MALT. HEK293 cells were stably transfected with a luciferase reporter gene driven by a NF-κB responsive promoter, and the responsiveness of this integrated promoter to various NF-κB inducing stimuli was confirmed, including PMA/Ionomycin and TNF. Using these cells, 96- and 384-well plate-based high throughput screening (HTS) assays were established, with good assay performance characteristics (Z′>0.5) (PubChem AID=1384). We initially screened 53,280 chemical compounds at an average concentration of 5 μM, of which 519 primary hits were obtained (based on cut-off of 50% inhibition). Of these, 248 confirmed upon repeat testing (FIG. 1).
Cell engineering. HEK293 cells were co-transfected with pUC13-4xNFκB-Luc and p-TK-puromycin-resistance plasmids. Stable clones were selected by culture in Dulbecco's Modified Eagle's Media (InVitrogen) supplemented with 10% heat-inactivated fetal bovine serum (FBS) (Hyclone), 1% v/v penicillin-streptomycin (InVitrogen) containing 1 μg/mL puromycin. Individual clones were tested for responsiveness to PMA/Ionomycin- and to TNF-induced NF-κB reporter gene activity, and a clone was selected for HTS.
HTS. NF-κB-luciferase expressing HEK293 cells were seeded at […] per well in white 96 well plates (Greiner Bio-One) in 90 μl of DMEM and incubated overnight. 10 μl of compound-containing solution was added to each well (final 1.5 μg/mL in 1% DMSO) using a liquid handler (Biomek™ FX; Beckman Coulter). After 2 h incubation, cells were stimulated using 11 μl of a PMA (final 100 ng/mL; Calbiochem) and ionomycin (final 50 ng/mL; Calbiochem) in DMEM. Cell plates were incubated for 16 h before media was removed and 40 μl of 0.5× passive lysis buffer (Promega Corp.) was added to cell plates. Plates were allowed to stand at room temperature for at least 15 minutes before adding 40 μl of 0.125× luciferin substrate (Promega Corp.) to each well. Plates were analyzed within 30 seconds with a Criterion Analyst™ using the luminescence method (0.1 second read/well).
Several compounds synthesized by the methods described herein were tested for their efficacy at inhibiting Nf-κB activation.

[2] = tested on: TNF-induced NF-κB reporter gene activity; assay: TNF-induced NF-κB reporter counter-screen in HEK293-NFκB-Luc cells; assay type: cell-based; conditions: TNF 10 ng/mL; CID-2858522 at concentrations as high as 4 μM
Description: (§1) (A) Structures of two hit compounds, CID-2858522 (left) and CID-2998237 (right) are shown; (B, C) 293-NF-κB-luc cells were pretreated for 2 hrs with various concentration of either CID-2858522 (B) or CID-29982387 (C) and then stimulated with TNF (10 ng/mL) or PMA/lonomycin (10 ng/mL; 5 ng/mL) for 16 h. Luciferase activity was measured and data were expressed as a percentage relative to control treatment with DMSO only (mean±SD; n=3). (D) 293-NF-κB-luc cells were pretreated for 2 h with various concentrations of CID-2858522 or CID-2998237, then stimulated with PMA/lonomycin for 16 h. IL-8 release into the medium was measured, expressing data as a percentage relative to control cultures treated with DMSO (mean±SD; n=3). (E) 293-NF-κB-luc cells were pretreated with CID-2858522 and then stimulated with PDBu for 16 h, IL-8 production and NF-κB luciferase activity were measured as above. (F) 293-NF-κB-luc cells were pretreated for 2 h with various concentrations of CID-2858522 or a PKC inhibitor (Bisindolylmaleimide I) at 1 μM followed by PMA/Ionomycin (10 ng/mL) stimulation for 2 h, then p65-DNA-binding activity was measured in nuclear extracts (10 μg protein), expressing data as fold-increase relative to unstimulated cells (mean±SD; n=3).
Counter Screening and Secondary Assays. […] Luciferase activity was measured using Britelite kit (Perkin Elmer). […]

[3] = tested on: PMA/Ionomycin-stimulated IL-8 production; assay: PMA/Ionomycin-stimulated IL-8 production by HEK293 reporter cells (ELISA); assay type: cell-based, human; conditions: CID-2998237 at concentrations as high as 4 μM
Description: as §1
Lymphokine measurements. Human IL-2 or IL-8 levels in culture medium were measured by Enzyme-Linked Immunosorbent Assays (ELISAs), using BD OptEIA ELISAs (BD Biosciences, San Diego, Calif.), according to the manufacturer's protocol, using 96-well ELISA plates (BD Biosciences) and measuring absorbance within 30 minutes of initiating reactions using a SpectraMax 190 spectrophotometer (Molecular Devices).

Row | Compound | inhibition of PMA/Ionomycin-induced NF-κB luciferase activity [1] | IC50 [1] | further results
1 | COC(=O)C1=C(CN2CCCc3ccccc32)NC(=O)NC1c1ccc(F)cc1 (centres unmarked) [CID-2998237] | less potent |  | inhibition of TNF-induced NF-κB reporter gene activity [2]: some modest inhibition; effect on PMA/Ionomycin-induced IL-8 production [3]: minimal effect
2 | COc1c(C(C)(C)C)cc(C(=O)Cn2c(NCCCO)nc3cc(C)c(C)cc32)cc1C(C)(C)C [Compound 32, 1-(3,5-di-tert-butyl-4-methoxyphenyl)-2-(2-(3-hydroxypropylamino)-5,6-dimethyl-1H-benzo[d]imidazol-1-yl)ethanone] |  | 0.07 µM | 
3 | COCCCNc1nc2cc(C)c(C)cc2n1CC(=O)c1cc(C(C)(C)C)c(O)c(C(C)(C)C)c1 [Compound 33, 2-(2-(3-methoxypropylamino)-5,6-dimethyl-1H-benzo[d]imidazol-1-yl)-1-(3,5-di-tert-butyl-4-hydroxyphenyl)ethanone] |  | 0.25 µM | 
4 | COCCCNc1nc2cc(C)c(C)cc2n1CC(=O)c1cc(C(C)(C)C)c(OC)c(C(C)(C)C)c1 [Compound 34, 2-(2-(3-methoxypropylamino)-5,6-dimethyl-1H-benzo[d]imidazol-1-yl)-1-(3,5-di-tert-butyl-4-methoxyphenyl)ethanone] |  | 0.25 µM | 
5 | CCCCNc1nc2cc(C)c(C)cc2n1CC(=O)c1cc(C(C)(C)C)c(O)c(C(C)(C)C)c1 [Compound 40, 1-(3,5-di-tert-butyl-4-hydroxyphenyl)-2-(2-(butylamino)-5,6-dimethyl-1H-benzo[d]imidazol-1-yl)ethanone] |  | 0.1 µM | 
6 | z-ITED-fmk [reference compound] | significantly inhibit |  | 
